In patent publication US7348425B2, “Inhibitors of HCV replication” (Bristol-Myers Squibb Company, priority 2004, dated 2008):

biological target: T1, HCV NS5B RdRp genotype 1b (Hepatitis C virus genotype 1b, UniProt Q9WMX2); experiment: Modified HCV NS5B RdRp enzyme assay (with preincubation); format: biochemical; settings: modified method (with preincubation)
T1 construct: The protein was expressed with an 18 amino acid C-terminal truncation to enhance the solubility; made in house; host or cells: E. coli BL21 (DE3), pET21a
T1 sequence (Q9WMX2 2420-2992): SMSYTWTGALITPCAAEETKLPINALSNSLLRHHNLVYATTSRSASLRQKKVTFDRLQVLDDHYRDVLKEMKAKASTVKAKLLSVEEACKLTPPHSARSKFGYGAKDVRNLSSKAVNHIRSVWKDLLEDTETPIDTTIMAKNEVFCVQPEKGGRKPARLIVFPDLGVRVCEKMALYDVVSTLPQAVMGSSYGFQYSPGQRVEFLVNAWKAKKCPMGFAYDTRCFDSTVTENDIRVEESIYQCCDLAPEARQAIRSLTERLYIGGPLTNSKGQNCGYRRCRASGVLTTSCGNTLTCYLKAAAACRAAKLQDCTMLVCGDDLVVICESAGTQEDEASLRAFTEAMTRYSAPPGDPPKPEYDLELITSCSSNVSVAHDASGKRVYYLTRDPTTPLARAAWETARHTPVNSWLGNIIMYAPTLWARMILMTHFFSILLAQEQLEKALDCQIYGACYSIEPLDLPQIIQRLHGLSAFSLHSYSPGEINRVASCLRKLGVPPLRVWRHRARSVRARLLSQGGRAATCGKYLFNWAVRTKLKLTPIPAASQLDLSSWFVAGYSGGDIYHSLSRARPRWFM
Outline: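 C-terminally truncated (Δ18) genotype 1b NS5B from E. coli was preincubated (14 nM) with compound, then reaction started with polyA template (0.2 nM), ³H-UTP (0.29 μM) and dT12 primer (20 nM) precaptured on SPA beads. Reaction ran 4 h at 30 °C in pH 7.5 Hepes buffer with 2% DMSO. IC50 came from seven concentrations.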

Row | SMILES | IC50 [nM]
1 | Cn1cnc(S(=O)(=O)NC(=O)c2ccc3c(C4CCCCC4)c4n(c3c2)C[C@@H](O)[C@@H](O)c2ncccc2-4)c1 | 20 to 1000
2 | COC(=O)/C=C/c1ccc(NC(=O)C2(NC(=O)c3ccc4c(C5CCCCC5)c5n(c4c3)CC(=O)Cc3ccccc3-5)CCCC2)cc1 | > 1000
3 | COC(=O)/C=C/c1ccc(NC(=O)C2(NC(=O)c3ccc4c(C5CCCCC5)c5n(c4c3)C[C@@H](O)[C@@H](O)c3ncccc3-5)CCCC2)cc1 | 20 to 1000
4 | O=C(O)c1ccc2c(C3CCCCC3)c3n(c2c1)CCCCN(CCO)c1ccccc1-3 | > 1000
5 | CN(C)C(=O)c1ccc2c(C3CCCCC3)c3n(c2c1)CC(C(=O)N1CCOCC1)=Cc1ccccc1-3 | 20 to 1000
6 | CN(Cc1ccc(/C=C/C(=O)O)cc1)S(=O)(=O)NC(=O)c1ccc2c(C3CCCCC3)c3n(c2c1)CC(=O)Nc1ccccc1-3 | 20 to 1000
7 | COC(=O)C1=Cc2ccncc2-c2c(C3CCCCC3)c3ccc(C(=O)OC)cc3n2C1 | > 1000
8 | O=C(O)/C=C/c1ccc(NC(=O)C2(NC(=O)c3ccc4c(C5CCCCC5)c5n(c4c3)CC(C(=O)N3CCC(N4CCCC4)CC3)Cc3ccccc3-5)CCCC2)cc1 (stereo not drawn) | 20 to 1000
9 | O=C(O)c1ccc2c(C3CCCCC3)c3n(c2c1)CC(C(=O)N1CCOCC1)=Cc1ccncc1-3 | 20 to 1000
10 | CN(C)S(=O)(=O)NC(=O)c1ccc2c(C3CCCCC3)c3n(c2c1)C[C@@H](O)[C@@H](O)c1ccccc1-3 | > 1000
11 | CN1C(=O)Cn2c(c(C3CCCCC3)c3ccc(C(=O)NC4(C(=O)Nc5ccc6c(c5)cc(C(=O)O)n6C)CCCC4)cc32)-c2ccccc21 | 20 to 1000
12 | CN(CCO)C(=O)C1=Cc2ccccc2-c2c(C3CCCCC3)c3ccc(C(=O)NS(=O)(=O)N(C)C)cc3n2C1 | 20 to 1000
13 | CCOC(=O)c1nc(-c2ccc(NC(=O)C3(NC(=O)c4ccc5c(C6CCCCC6)c6n(c5c4)CCCc4ccccc4-6)CCCC3)cc2)cs1 | > 1000
14 | CN(C)S(=O)(=O)NC(=O)c1ccc2c(C3CCCCC3)c3n(c2c1)CC(C(=O)N1CCOCC1)=Cc1cccnc1-3 | 20 to 1000
15 | CS(=O)(=O)NC(=O)c1ccc2c(C3CCCCC3)c3n(c2c1)CC(C(=O)N1CCOCC1)Cc1ccccc1-3 (stereo not drawn) [drawing 303] | 20 to 1000
16 | COC(=O)c1ccc2c(C3CCCCC3)c3n(c2c1)CC(C(=O)O)=Cc1cc(OC)ccc1-3 | 20 to 1000
17 | Cn1c(C(=O)O)cc2cc(NC(=O)C3(NC(=O)c4ccc5c(C6CCCCC6)c6n(c5c4)CC(=O)Nc4ccccc4-6)CCCC3)ccc21 | 20 to 1000
18 | CCN(CC)S(=O)(=O)NC(=O)c1ccc2c(C3CCCCC3)c3n(c2c1)CC(C(=O)N1CCOCC1)=Cc1ccccc1-3 | 20 to 1000
19 | O=C(NS(=O)(=O)N1CCCC1)c1ccc2c(C3CCCCC3)c3n(c2c1)CC(C(=O)N1CCOCC1)Cc1ccccc1-3 (stereo not drawn) | 20 to 1000
20 | O=C(O)c1ccc2c(C3CCCCC3)c3n(c2c1)C/C(=N/O)Cc1ccccc1-3 | 20 to 1000
21 | CC(C)(C)S(=O)(=O)NC(=O)c1ccc2c(C3CCCCC3)c3n(c2c1)CC(C(=O)N1CCOCC1)=Cc1ccccc1-3 | 20 to 1000
22 | COC(=O)c1ccc2c(C3CCCCC3)c3n(c2c1)CC(C(=O)N1CCOCC1)=Cc1cc(OC)ccc1-3 | 20 to 1000
23 | COc1ccc2c(c1)C=C(C(=O)N1CCOCC1)Cn1c-2c(C2CCCCC2)c2ccc(C(=O)NS(=O)(=O)N(C)C)cc21 | 20 to 1000

same assay, conditions: preincubation protocol

Row | SMILES | IC50 [nM]
24 | O=C(O)c1ccc2c(C3CCCCC3)c3n(c2c1)C(C(=O)N1CCOCC1)CCc1ccccc1-3 (stereo not drawn) | > 12500
25 | COc1ccc2c(c1)C=C(C(=O)N1[C@H](C)CC[C@H]1C)Cn1c-2c(C2CCCCC2)c2ccc(C(=O)NS(=O)(=O)N(C)C)cc21 | 10 to 1000
26 | COC(=O)c1ccc2c(C3CCCCC3)c3n(c2c1)CC(C(=O)O)=Cc1c(OC)cccc1-3 | 1000 to 10000
27 | C[C@@H]1CN(C(=O)C2=Cc3ccccc3-c3c(C4CCCCC4)c4ccc(C(=O)NC5(C(=O)Nc6ccc(-c7cnco7)cc6)CCCC5)cc4n3C2)C[C@H](C)O1 | 10 to 1000
28 | COc1ccc2c(c1O)C(O)n1c-2c(C2CCCCC2)c2ccc(C(=O)NS(=O)(=O)N(C)C)cc21 (stereo not drawn) | 1000 to 10000
29 | COC(=O)c1ccc2c(C3CCCCC3)c3n(c2c1)CC(C(=O)N1C[C@@H](C)N[C@@H](C)C1)=Cc1cc(F)ccc1-3 | 10 to 1000
30 | COc1ccc2c(c1)CC(F)(C(=O)N1C[C@@H](C)O[C@@H](C)C1)Cn1c-2c(C2CCCCC2)c2ccc(C(=O)NS(=O)(=O)N(C)C)cc21 (stereo partly drawn) | 10 to 1000

test system: HCV replicon; experiment: HCV replicon FRET assay; format: cell-based; settings: Hepatitis C virus
Outline: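 Replicon cells (± Renilla luciferase reporter) incubated with titrated compound at 37 °C; NS3 protease activity read by FRET peptide cleavage (20 uM EDANS/DABCYL substrate, 340/490 nm kinetic) or luciferase.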

Row | SMILES | EC50 [nM]
31 | COc1ccc2c(c1)C=C(C(=O)N1CCOCC1)Cn1c-2c(C2CCCCC2)c2ccc(C(=O)NS(=O)(=O)N(C)C)cc21 | 10 to 1000

same assay, conditions: Hepatitis C virus; FRET assay; read-out: EC50

Row | SMILES | EC50 [nM]
32 | O=C(O)c1ccc2c(C3CCCCC3)c3n(c2c1)C(C(=O)N1CCOCC1)CCc1ccccc1-3 (stereo not drawn) | > 3300
33 | COc1ccc2c(c1)C=C(C(=O)N1[C@H](C)CC[C@H]1C)Cn1c-2c(C2CCCCC2)c2ccc(C(=O)NS(=O)(=O)N(C)C)cc21 | 50 to 1000
34 | COC(=O)c1ccc2c(C3CCCCC3)c3n(c2c1)CC(C(=O)O)=Cc1c(OC)cccc1-3 | 1000 to 10000
35 | C[C@@H]1CN(C(=O)C2=Cc3ccccc3-c3c(C4CCCCC4)c4ccc(C(=O)NC5(C(=O)Nc6ccc(-c7cnco7)cc6)CCCC5)cc4n3C2)C[C@H](C)O1 | 50 to 1000
36 | Cn1cnc(S(=O)(=O)NC(=O)c2ccc3c(C4CCCCC4)c4n(c3c2)C[C@@H](O)[C@@H](O)c2ncccc2-4)c1 | > 10000
37 | COC(=O)/C=C/c1ccc(NC(=O)C2(NC(=O)c3ccc4c(C5CCCCC5)c5n(c4c3)CC(=O)Cc3ccccc3-5)CCCC2)cc1 | 10 to 1000
38 | COC(=O)/C=C/c1ccc(NC(=O)C2(NC(=O)c3ccc4c(C5CCCCC5)c5n(c4c3)C[C@@H](O)[C@@H](O)c3ncccc3-5)CCCC2)cc1 | 10 to 1000
39 | O=C(O)c1ccc2c(C3CCCCC3)c3n(c2c1)CCCCN(CCO)c1ccccc1-3 | 1000 to 10000
40 | CN(C)C(=O)c1ccc2c(C3CCCCC3)c3n(c2c1)CC(C(=O)N1CCOCC1)=Cc1ccccc1-3 | 1000 to 10000
41 | CN(Cc1ccc(/C=C/C(=O)O)cc1)S(=O)(=O)NC(=O)c1ccc2c(C3CCCCC3)c3n(c2c1)CC(=O)Nc1ccccc1-3 | 1000 to 10000
42 | COC(=O)C1=Cc2ccncc2-c2c(C3CCCCC3)c3ccc(C(=O)OC)cc3n2C1 | 1000 to 10000
43 | O=C(O)/C=C/c1ccc(NC(=O)C2(NC(=O)c3ccc4c(C5CCCCC5)c5n(c4c3)CC(C(=O)N3CCC(N4CCCC4)CC3)Cc3ccccc3-5)CCCC2)cc1 (stereo not drawn) | 10 to 1000
44 | COc1ccc2c(c1O)C(O)n1c-2c(C2CCCCC2)c2ccc(C(=O)NS(=O)(=O)N(C)C)cc21 (stereo not drawn) | > 100
45 | O=C(O)c1ccc2c(C3CCCCC3)c3n(c2c1)CC(C(=O)N1CCOCC1)=Cc1ccncc1-3 | 1000 to 10000
46 | CN(C)S(=O)(=O)NC(=O)c1ccc2c(C3CCCCC3)c3n(c2c1)C[C@@H](O)[C@@H](O)c1ccccc1-3 | 10 to 1000
47 | CN1C(=O)Cn2c(c(C3CCCCC3)c3ccc(C(=O)NC4(C(=O)Nc5ccc6c(c5)cc(C(=O)O)n6C)CCCC4)cc32)-c2ccccc21 | 10 to 1000
48 | COC(=O)c1ccc2c(C3CCCCC3)c3n(c2c1)CC(C(=O)N1C[C@@H](C)N[C@@H](C)C1)=Cc1cc(F)ccc1-3 | 1000 to 10000
49 | CN(CCO)C(=O)C1=Cc2ccccc2-c2c(C3CCCCC3)c3ccc(C(=O)NS(=O)(=O)N(C)C)cc3n2C1 | 10 to 1000
50 | CCOC(=O)c1nc(-c2ccc(NC(=O)C3(NC(=O)c4ccc5c(C6CCCCC6)c6n(c5c4)CCCc4ccccc4-6)CCCC3)cc2)cs1 | 10 to 1000
51 | CN(C)S(=O)(=O)NC(=O)c1ccc2c(C3CCCCC3)c3n(c2c1)CC(C(=O)N1CCOCC1)=Cc1cccnc1-3 | 10 to 1000
52 | COc1ccc2c(c1)CC(F)(C(=O)N1C[C@@H](C)O[C@@H](C)C1)Cn1c-2c(C2CCCCC2)c2ccc(C(=O)NS(=O)(=O)N(C)C)cc21 (stereo partly drawn) | 50 to 1000
53 | CS(=O)(=O)NC(=O)c1ccc2c(C3CCCCC3)c3n(c2c1)CC(C(=O)N1CCOCC1)Cc1ccccc1-3 (stereo not drawn) [drawing 303] | 10 to 1000
54 | COC(=O)c1ccc2c(C3CCCCC3)c3n(c2c1)CC(C(=O)O)=Cc1cc(OC)ccc1-3 | 1000 to 10000
55 | Cn1c(C(=O)O)cc2cc(NC(=O)C3(NC(=O)c4ccc5c(C6CCCCC6)c6n(c5c4)CC(=O)Nc4ccccc4-6)CCCC3)ccc21 | 10 to 1000
56 | CCN(CC)S(=O)(=O)NC(=O)c1ccc2c(C3CCCCC3)c3n(c2c1)CC(C(=O)N1CCOCC1)=Cc1ccccc1-3 | 10 to 1000
57 | O=C(NS(=O)(=O)N1CCCC1)c1ccc2c(C3CCCCC3)c3n(c2c1)CC(C(=O)N1CCOCC1)Cc1ccccc1-3 (stereo not drawn) | 10 to 1000
58 | O=C(O)c1ccc2c(C3CCCCC3)c3n(c2c1)C/C(=N/O)Cc1ccccc1-3 | 1000 to 10000
59 | CC(C)(C)S(=O)(=O)NC(=O)c1ccc2c(C3CCCCC3)c3n(c2c1)CC(C(=O)N1CCOCC1)=Cc1ccccc1-3 | 10 to 1000
60 | COC(=O)c1ccc2c(C3CCCCC3)c3n(c2c1)CC(C(=O)N1CCOCC1)=Cc1cc(OC)ccc1-3 | 10 to 1000
